US20230312524A1, “ALPHA1A-ADRENERGIC RECEPTOR AGONISTS AND METHODS OF USE” (CuraSen Therapeutics, Inc., priority 2020, published 2023)
Where two headings read alike, the source gives them in different places.

Biological target: T1, α1A-ARS (Homo sapiens, UniProt P35348)
T1 sequence (P35348 1-466): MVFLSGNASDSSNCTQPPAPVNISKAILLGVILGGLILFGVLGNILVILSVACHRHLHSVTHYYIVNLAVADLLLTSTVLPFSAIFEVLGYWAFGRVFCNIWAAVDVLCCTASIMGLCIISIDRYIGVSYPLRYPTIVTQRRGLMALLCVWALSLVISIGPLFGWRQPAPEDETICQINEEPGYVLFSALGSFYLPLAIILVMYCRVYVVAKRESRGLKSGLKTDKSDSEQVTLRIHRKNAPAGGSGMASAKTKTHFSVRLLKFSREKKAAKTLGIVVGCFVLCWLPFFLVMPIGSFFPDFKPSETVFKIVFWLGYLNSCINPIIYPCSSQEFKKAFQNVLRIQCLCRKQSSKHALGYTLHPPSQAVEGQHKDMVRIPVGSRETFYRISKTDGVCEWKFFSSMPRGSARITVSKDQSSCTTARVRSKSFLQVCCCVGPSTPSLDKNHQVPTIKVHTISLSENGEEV
Experiment: Calcium flux assay (Calcium 6 dye) in cells expressing an α1-AR
Format: cell-based
Settings: for EC50: mean of at least three experiments, read-out: Average PEC50; for Emax: read-out: Average Emax
Description: Calcium flux experimental design: alpha-1 adrenergic receptors (α1-ARs) couple to Gq proteins, which results in downstream activation of phospholipase C and release of calcium from intracellular stores. Intracellular calcium increase upon α1-AR activation can be detected by Calcium 6 dye.
Cell preparation: cells expressing an α1-AR were washed in warmed phosphate-buffered saline to remove medium and harvested using versene (Caisson Labs, catalog #EDL01).
Media was removed from cells by tapping plates upside-down on absorbent wipes, followed by 15 second upside-down 50×g centrifugation, again on absorbent wipes. 12 μL cell dye solution was added to cells using a reagent dispenser (Integra viaFILL) and cells were incubated for 90 minutes at 37° C., 5% CO2.
Compound preparation: candidate alpha-adrenergic compounds, dissolved to 10 mM in DMSO, were diluted in_assay buffer (HBSS/H-EPES containing 2 mM CaCl2 and 2 mM probenecid sodium salt). […] On all assay plates, vehicle (DMSO) and positive control (10 μM epinephrine) conditions were included on the plate, as well as a dose-response curve of epinephrine. […] 384 well compound plates were centrifuged briefly at 250×g, sealed (Axygen PCR-SP) and incubated at 37° C. until the 90 minute cell dye incubation was complete.
Calcium 6 stained cells and 384 well compound plates were loaded onto the Flexstation and incubated on the machine for 5 minutes before initiating the assay.
For each assay well, baseline Calcium 6 fluorescence was detected for 18 seconds prior to 12 μL compound addition at 12 μL per second. Changes in Calcium 6 fluorescence were detected for a further 22 seconds, for a total read time of 40 seconds. All detection was performed with medium gain sensitivity, bottom read, with 6 flashes per read.
Data analysis: for calcium flux, analysis of maximum change from baseline over the 40-second read time was determined using Softmax Pro and data was exported as raw text files. Potency estimates (EC50) were derived from dose response curves (maximum change from baseline versus the log concentration of test compound) fit by four-parameter nonlinear regression using Graphpad Prism. Efficacy was determined by comparing the magnitude of the test compound signal window (fitted curve max−min) with the signal window of the full agonist control, epinephrine. […] All experiments were repeated a minimum of three times, with the average (mean) potency and maximum effect relative to the within-plate full agonist dose-response comparator reported.

[1] = calcium flux, α1A-AR, maximum effect relative to full agonist epinephrine

| SMILES | EC50 (calcium flux, α1A-AR) [nM] | Emax [%] | Emax [1] [%] |
| --- | --- | --- | --- |
| Cc1cc(Cl)ccc1CC1=NCCN1 [Compound 38] | 10 to 977 | 21 to 60 |  |
| FC(F)(F)c1cc(Cl)ccc1CC1=NCCN1 [Compound 39] | 10 to 977 | > 61 |  |
| COc1cc(Cl)ccc1CC1=NCCN1 [Compound 40] | 10 to 977 | 21 to 60 |  |
| CC(C)(C)c1cc(Cl)ccc1CC1=NCCN1 [Compound 41] | > 1000 | < 20 |  |
| Cc1oc2ccc(CC3=NCCN3)cc2c1C [Compound 42] | > 1000 | < 20 |  |
| Cc1oc2cc(CC3=NCCN3)ccc2c1C [Compound 43] | 10 to 977 | 21 to 60 |  |
| Cc1c(CC2=NCCN2)cc(C)c2occc12 [Compound 44] | 10 to 977 | 21 to 60 |  |
| Cc1oc2c(CC3=NCCN3)cccc2c1C [Compound 45] | 10 to 977 | > 61 |  |
| c1cc2c(cc1CC1=NCCN1)NCC21CC1 [Compound 46] | 10 to 977 |  | 21 to 60 |
| COc1c(CC2=NCCN2)ccc2occc12 [Compound 47] | 10 to 977 | 21 to 60 |  |
| c1cc(CC2=NCCN2)c2occc2c1 [Compound 48] | 10 to 977 | > 61 |  |
| c1cc(CC2=NCCN2)c2[nH]ccc2c1 [Compound 50] | 10 to 977 | 21 to 60 |  |
| c1cc(CC2=NCCN2)c2[nH]ncc2c1 [Compound 51] | > 1000 | 21 to 60 |  |
| Clc1c(CC2=NCCN2)ccc2occc12 [Compound 52] | 10 to 977 | < 20 |  |
| Clc1cc2occc2cc1CC1=NCCN1 [Compound 53] | < 9.77 | > 61 |  |
| Cc1c(CC2=NCCN2)ccc2occc12 [Compound 54] | 10 to 977 | 21 to 60 |  |
| Cc1c(CC2=NCCN2)ccc2[nH]ncc12 [Compound 55] | 10 to 977 | 21 to 60 |  |
| Cc1c(CC2=NCCN2)cc(Cl)c2occc12 [Compound 56] | 10 to 977 | 21 to 60 |  |

| SMILES | EC50 (calcium flux, α1A-AR) [nM] | Emax [%] | Emax [1] [%] |
| --- | --- | --- | --- |
| Cc1c(CC2=NCCN2)ccc2c1CCO2 [Compound 58] | 10 to 977 | 21 to 60 |  |
| Cc1cc2cccc(CC3=NCCN3)c2o1 [Compound 59] | 10 to 977 | > 61 |  |
| Cc1coc2c(CC3=NCCN3)cccc12 [Compound 60] | 10 to 977 | 21 to 60 |  |
| Cc1c(CC2=NCCN2)ccc2cc[nH]c12 [Compound 61] | 10 to 977 | < 20 |  |
| Clc1cn(-c2cn[nH]c2)c2cc(CC3=NCCN3)ccc12 [Compound 62] | > 1000 |  | < 20 |
| Clc1cn(C2CC2)c2cc(CC3=NCCN3)ccc12 [Compound 63] | 10 to 977 | 21 to 60 |  |
| CC(C)(C)c1ccccc1CC1=NCCN1 [Compound 64] | > 1000 | < 20 |  |
| Clc1ccc(CC2=NCCN2)c(C2CC2)c1 [Compound 65] | 10 to 977 | > 61 |  |
| Cc1cc(C(F)(F)F)ccc1CC1=NCCN1 [Compound 66] | 10 to 977 | 21 to 60 |  |
| CCc1cc(Cl)ccc1CC1=NCCN1 [Compound 67] | 10 to 977 | > 61 |  |
| FC(F)(F)c1ccc(CC2=NCCN2)c(N2CCOCC2)c1 [Compound 68] | > 1000 |  | < 20 |
| FC(F)(F)c1ccc(CC2=NCCN2)c(N2CCCCC2)c1 [Compound 69] | 10 to 977 |  | 21 to 60 |
| Fc1ccc(CC2=NCCN2)c(C2CC2)c1 [Compound 70] | 10 to 977 | 21 to 60 |  |
| CCc1cc(F)ccc1CC1=NCCN1 [Compound 71] | 10 to 977 | 21 to 60 |  |
| Fc1ccc(CC2=NCCN2)c(N2CCOCC2)c1 [Compound 72] | > 1000 |  | < 20 |
| Cc1cc(F)ccc1CC1=NCCN1 [Compound 73] | 10 to 977 | 21 to 60 |  |
| Clc1ccc(CC2=NCCN2)c(-c2ccccc2)c1 [Compound 74] | 10 to 977 |  | > 61 |
